Values after ≈ are worked out from the molar mass of the structure shown. Read-outs that look alike come from different tables or passages of the source.
Key:
[1] = hemolysis, 50% release of hemoglobin from human red blood cells; conditions: human, red blood cells
[2] = UV-vis spectroscopy of interaction with cholesterol-containing large unilamellar vesicles; conditions: 2.6 μM; 1 mM egg PC and 0.5 mM cholesterol; 20 minutes, 23° C.
Description: In order to confirm that the poly(ethylene glycol)conjugates of the present invention retain their ability to recognize ergosterol-rich bilayers, their interaction with sterol-containing large unilamellar vesicles (1000 A diameter, LUVs) by UV-vis spectroscopy using published techniques [see J. Am. Chem. Soc. 115:708 (1993)]. […] Thus, the poly(ethylene glycol) conjugates according to the present invention recognize ergosterol-rich bilayers in a way that is similar to Amphotericin B.

[3] = tested on: Cryptococcus neoformans (isolate NIH C-1); assay: MIC against infecting isolate of Example VI; format: cell-based

COCCOCCOCCOCCOCCOCCNC(=O)[C@H]1[C@@H]2C[C@@H](O[C@@H]3O[C@H](C)[C@@H](O)[C@H](N)[C@@H]3O)/C=C/C=C/C=C/C=C/C=C/C=C/C=C/[C@H](C)[C@@H](O)[C@@H](C)[C@H](C)OC(=O)C[C@H](O)C[C@H](O)CC[C@@H](O)[C@H](O)C[C@H](O)C[C@](O)(C[C@@H]1O)O2 [Example II]
HC50 at 1 h [1]: 42 µM | absorption spectrum with cholesterol-containing vesicles [2]: essentially the same as that observed in the presence of egg phosphatidyl choline vesicles (without sterol) | MIC [3]: ≤ 6.06 µg/mL | MIC ([3]; 48 h): 1.51 µg/mL (≈ 1.26 µM) | MIC ([3]; 72 h): 3.03 µg/mL (≈ 2.52 µM)

Reference: patent US5606038A, “Amphiphilic polyene macrolide antibiotic compounds” (Competitive Technologies, Inc., priority 1995, dated 1997)
